# From patent publication US9828357B2, “Cyclic compounds” (Takeda Pharmaceutical Company Limited, priority 2015, dated 2017)
# Target: T1, TLR4 (Mus musculus, UniProt Q9QUK6)
# T1 construct: endogenous in cells; host or cells: RAW264.7 (murine macrophage cell line)
# T1 sequence (Q9QUK6 26-835): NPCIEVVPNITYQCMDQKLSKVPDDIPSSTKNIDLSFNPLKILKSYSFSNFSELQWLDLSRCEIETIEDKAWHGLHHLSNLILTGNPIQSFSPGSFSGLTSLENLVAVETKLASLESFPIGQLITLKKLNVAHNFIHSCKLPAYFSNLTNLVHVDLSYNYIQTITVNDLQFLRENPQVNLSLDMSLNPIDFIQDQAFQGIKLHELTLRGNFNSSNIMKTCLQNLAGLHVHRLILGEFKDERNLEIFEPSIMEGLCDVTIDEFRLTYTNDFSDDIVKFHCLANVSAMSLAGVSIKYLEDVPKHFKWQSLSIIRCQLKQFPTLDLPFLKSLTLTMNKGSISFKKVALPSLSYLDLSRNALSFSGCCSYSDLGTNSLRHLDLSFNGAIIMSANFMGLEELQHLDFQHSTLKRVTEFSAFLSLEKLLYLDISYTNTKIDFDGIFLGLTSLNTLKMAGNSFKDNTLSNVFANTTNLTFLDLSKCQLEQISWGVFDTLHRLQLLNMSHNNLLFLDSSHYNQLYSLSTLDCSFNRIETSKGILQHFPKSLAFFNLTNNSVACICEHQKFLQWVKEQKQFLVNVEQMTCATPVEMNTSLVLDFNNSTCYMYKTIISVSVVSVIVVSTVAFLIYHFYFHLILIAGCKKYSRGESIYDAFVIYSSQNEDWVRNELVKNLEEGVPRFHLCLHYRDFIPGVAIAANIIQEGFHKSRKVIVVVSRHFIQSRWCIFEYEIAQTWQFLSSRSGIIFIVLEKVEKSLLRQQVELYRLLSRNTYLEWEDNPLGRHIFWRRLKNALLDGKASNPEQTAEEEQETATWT
# T1 sequence (Q9JHF9 19-160 partner): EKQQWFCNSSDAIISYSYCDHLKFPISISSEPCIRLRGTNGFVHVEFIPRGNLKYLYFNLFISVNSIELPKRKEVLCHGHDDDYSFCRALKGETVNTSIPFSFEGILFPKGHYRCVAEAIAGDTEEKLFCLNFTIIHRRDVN
# Assay: Inhibitory effect with respect to NO production (LPS/interferon γ-stimulated RAW264.7)
# Format: cell-based, murine
# Settings: RAW264.7 cells, LPS 1.25 ng/mL and mouse interferon γ 0.2 ng/mL, nitrite ion in culture supernatant
# Procedure: The inhibitory effect on TLR4 was determined using the inhibition rate due to the test compound with respect to NO production as a result of addition of lipopolysaccharide (LPS) using murine macrophage cell line RAW264.7. The cells were adjusted to 2×10^6 cells/mL using RPM1-1640 culture medium (phenol red free) supplemented with 10% inactivated bovine fetal serum, and were plated on 384 well plate so as to contain 6×10^4 cells/30 μL per well. Thereafter the cells were cultured at 37° C. overnight under 5% CO2/95% air. The test compound dissolved in DMSO was diluted 200 times using RPM1-1640 culture medium and adjusted so as to form a compound concentration of 500 nM. The prepared test compound 10 μL (final concentration 100 nM) was added to the cells, and LPS (Sigma) and mouse interferon γ (Wako Pure Chemicals) were added in amounts of 10 μL so as to form final concentrations of 1.25 ng/mL and 0.2 ng/mL respectively. The cells were further cultured overnight, and then the nitrite ion (stable NO metabolite) concentration in the culture supernatant was measured as an index of NO production. The nitrite ion concentration was assayed by adding 10 μL of 20 μg/mL 2,3-diamino naphthalene (DAN) dissolved in 0.2N HCl to 20 μL culture supernatant, incubating at room temperature for ten minutes, and then adding 10 μL of 0.5N NaOH, and measuring the fluorescent value at 460 nm (excitation wavelength 355 nm) using an EnVision plate reader (Perkin Elmer). The NO production inhibition rate (%) was calculated using the value without the addition of stimulating agent as control of 100% inhibition, and the value without the addition of the compound as control of 0% inhibition.
row,Compound,NO production inhibitory effect at 100 nM (% inhibition)
1,"CCOC(=O)C1=CCOCC1S(=O)(=O)C1CCc2cccc(Cl)c21 (single isomer, unassigned) [Compound 20]",104
2,"CCOC(=O)C1=CCCCC1S(=O)(=O)C1CCc2c(Cl)cccc21 (stereo not drawn) [Compound 1, Ethyl 6-((4-chloro-2,3-dihydro-1H-inden-1-yl)sulfonyl)cyclohex-1-ene-1-carboxylate]",96
3,"CCOC(=O)C1=CC2(CCC1S(=O)(=O)C1CCc3c(F)ccc(Cl)c31)O[C@@H](CO)[C@H](CO)O2 (stereo partly drawn) [Compound 9, Ethyl (2S, 3S)-8-((7-chloro-4-fluoro-2,3-dihydro-1H-inden-1-yl)sulfonyl)-2,3-bis(hydroxymethyl)-1,4-dioxaspiro[4.5]dec-6-ene-7-carboxylate]",110

# Other lines, results leading:
row,NO production inhibitory effect at 100 nM (% inhibition),Compound
1,99,"CCOC(=O)C1=CC2(CCC1S(=O)(=O)C1CCc3c(Cl)cccc31)O[C@H](CO)[C@@H](CO)O2 (stereo partly drawn) [Compound 2, Ethyl (2R,3R)-8-((4-chloro-2,3-dihydro-1H-inden-1-yl)sulfonyl)-2,3-bis(hydroxymethyl)-1,4-dioxaspiro[4.5]dec-6-ene-7-carboxylate]"
2,110,"CCOC(=O)C1=CC2(CCC1S(=O)(=O)C1CCc3c(Cl)cccc31)O[C@@H](CO)[C@H](CO)O2 (stereo partly drawn) [Compound 3, Ethyl (2S,3S)-8-((4-chloro-2,3-dihydro-1H-inden-1-yl)sulfonyl)-2,3-bis(hydroxymethyl)-1,4-dioxaspiro[4.5]dec-6-ene-7-carboxylate]"
3,105,"CCOC(=O)C1=CC2(CC[C@H]1S(=O)(=O)[C@H]1CCc3cccc(Cl)c31)O[C@@H](CO)[C@H](CO)O2 [Compound 7, Ethyl (2S,3S,8R)-8-(((1S)-7-chloro-2,3-dihydro-1H-inden-1-yl)sulfonyl)-2,3-bis(hydroxymethyl)-1,4-dioxaspiro[4.5]dec-6-ene-7-carboxylate]"
4,99,"CC1(COC(=O)C2=CC3(CCC2S(=O)(=O)C2CCc4cccc(Cl)c42)O[C@@H](CO)[C@H](CO)O3)CC1 (stereo partly drawn) [Compound 8, (1-methylcyclopropyl)methyl (2S,3S)-8-((7-chloro-2,3-dihydro-1H-inden-1-yl)sulfonyl)-2,3-bis(hydroxymethyl)-1,4-dioxaspiro[4.5]dec-6-ene-7-carboxylate]"
5,100,"CCOC(=O)C1=CC2(CCC1S(=O)(=O)C1CCc3ccc(F)c(Cl)c31)O[C@@H](CO)[C@H](CO)O2 (stereo partly drawn) [Compound 10, Ethyl (2S, 3S)-8-((7-chloro-6-fluoro-2,3-dihydro-1H-inden-1-yl)sulfonyl)-2,3-bis(hydroxymethyl)-1,3-dioxaspiro[4.5]dec-6-ene-7-carboxylate]"

# Same assay, conditions: RAW264.7 cells, LPS 1.25 ng/mL and mouse interferon γ 0.2 ng/mL, nitrite ion in culture supernatant, 0.1 µM
row,Compound,NO production inhibitory effect at 100 nM (% inhibition)
1,"CCOC(=O)C1=CC(O)CCC1S(=O)(=O)C1CCc2cccc(Cl)c21 (racemic) [Compound 4, Ethyl 6-((7-chloro-2,3-dihydro-1H-inden-1-yl)sulfonyl)-3-hydroxycyclohex-1-ene-1-carboxylate]",110
2,"CCOC(=O)C1=CC(O)CCC1S(=O)(=O)C1CCc2cccc(Cl)c21 (racemic) [Compound 5, Ethyl 6-((7-chloro-2,3-dihydro-1H-inden-1-yl)sulfonyl)-3-hydroxycyclohex-1-ene-1-carboxylate]",100

# Second part, the molecule after the results:
row,NO production inhibitory effect at 100 nM (% inhibition),Compound
1,108,"CCOC(=O)C1=CC2(CCC1S(=O)(=O)C1CCCc3cccc(Cl)c31)O[C@H](CO)[C@@H](CO)O2 (single isomer, unassigned) [Compound 16]"
2,86,"CCOC(=O)C1=CC2(CCC1S(=O)(=O)C1CCCc3cccc(Cl)c31)O[C@H](CO)[C@@H](CO)O2 (single isomer, unassigned) [Compound 17]"
